Tested on: spores of Bacillus thuringiensis

## O=[N+]([O-])O [nitric acid]
  destruction, inactivation of spores: ensured destruction, inactivation

Reference: patent US10653131B2 (priority 2013, dated 2020)
